Like-named read-outs stand apart in the source and are kept apart here.
Assays:
[1] = molecular target: T1, tau protein (4R) (Homo sapiens, UniProt P10636); assay: ThT fluorescence of heparin-induced aggregation of purified tau 4R, single concentration […]; assay type: biochemical
T1 construct: gene MAPT; fragment 4R (htau244–372), His-tagged

[2] = molecular target: T1, tau protein (4R); assay: ThT fluorescence of heparin-induced aggregation of purified tau 4R; supported by AFM and Raman; assay type: biochemical

T1 sequence (P10636 561-689): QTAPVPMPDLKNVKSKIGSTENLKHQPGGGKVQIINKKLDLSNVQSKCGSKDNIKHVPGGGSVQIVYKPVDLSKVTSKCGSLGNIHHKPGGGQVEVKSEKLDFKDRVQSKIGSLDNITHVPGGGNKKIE

SMILES	inhibition at 50 µM ([1]; read-out: Inhibition (%))	other results
CC(C)c1cc2c(c(O)c1O)[C@@]13CCCC(C)(C)[C@@H]1C[C@@H]2OC3=O [compound 1, carnosol]	68%	
CC(C)c1cc2c(c(O)c1O)[C@@]1(C(=O)O)CCCC(C)(C)[C@@H]1CC2 [compound 2, carnosic acid]		inhibition at 50 µM [1]: 65%
CC(C)c1cc2c(c(O)c1O)[C@@]13CCCC(C)(C)[C@@H]1[C@H](OC3=O)[C@H]2O [compound 3, rosmanol]	50%	
CC(C)c1cc2c(c(O)c1O)[C@@]13CCCC(C)(C)[C@@H]1[C@H](O)[C@@H]2OC3=O [compound 4, epiisorosmanol]	70%	
O=C(/C=C/c1ccc(O)c(O)c1)O[C@H](Cc1ccc(O)c(O)c1)C(=O)O [compound 5, rosmarinic acid]		IC50 [2]: 7.7 µM
